According to PubChem BioAssay (NCI):
Where “and” joins values, the source holds several entries; their conditions need not be identical. Identical values can stand only once.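 Protocol summary: plate cells (96-well), add compound at 5 concentrations, incubate 48 h, interpolate endpoints linearly. GI50 is the concentration that inhibits growth by half. Definition used: TGI = concentration required for complete inhibition of growth.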

Columns and labels:
Assay in all cases: NCI tumour cell line growth inhibition, 48 h
[1] = tested on: PC-3 prostate
[2] = tested on: SF-295 CNS
[3] = tested on: CAKI-1 renal
[4] = tested on: SK-MEL-5 melanoma
[5] = tested on: SNB-19 CNS
[6] = tested on: IGROV1 ovarian
[7] = tested on: HCC-2998 colon
[8] = tested on: HOP-62 NSCLC
[9] = tested on: NCI/ADR-RES ovarian
[10] = tested on: HT29 colon
[11] = tested on: MDA-MB-435
[12] = tested on: HCT-15 colon
[13] = tested on: U251 CNS
[14] = tested on: SK-MEL-28 melanoma
[15] = tested on: DU-145 prostate
[16] = tested on: LOX IMVI melanoma
[17] = tested on: ACHN renal
[18] = tested on: SNB-75 CNS
[19] = tested on: HS 578T breast
[20] = tested on: MDA-MB-231 breast
[21] = tested on: HCT-116 colon
[22] = tested on: UACC-62 melanoma
[23] = tested on: CCRF-CEM leukemia
[24] = tested on: OVCAR-8 ovarian
[25] = tested on: NCI-H226 lung
[26] = tested on: A549 NSCLC
[27] = tested on: SN12C renal
[28] = tested on: RXF 393 renal
[29] = tested on: HOP-92 NSCLC
[30] = tested on: TK-10 renal
[31] = tested on: OVCAR-5 ovarian
[32] = tested on: RPMI-8226 leukemia
[33] = tested on: NCI-H522 lung
[34] = tested on: UO-31 renal
[35] = tested on: BT-549 breast
[36] = tested on: UACC-257 melanoma
[37] = tested on: SF-268 CNS
[38] = tested on: SW-620 colon
[39] = tested on: MALME-3M melanoma
[40] = tested on: HL-60(TB) leukemia
[41] = tested on: OVCAR-3 ovarian
[42] = tested on: SR leukemia
[43] = tested on: COLO 205 colon
[44] = tested on: MOLT-4 leukemia
[45] = tested on: M14 melanoma
[46] = tested on: NCI-H23 lung
[47] = tested on: EKVX NSCLC
[48] = tested on: SK-OV-3 ovarian
[49] = tested on: K-562 leukemia
[50] = tested on: SK-MEL-2 melanoma
[51] = tested on: T-47D breast
[52] = tested on: NCI-H460 lung
[53] = tested on: OVCAR-4 ovarian
[54] = tested on: A498 renal
[55] = tested on: SF-539 CNS
[56] = tested on: 786-0 renal
[57] = tested on: KM12 colon

With `CC[C@@]1(O)C(=O)OCc2c1cc1n(c2=O)Cc2c-1nc1cc(F)c(C)c3c1c2[C@@H](NC(=O)CO)CC3` the GI50 [1] was 98.5 nM, the TGI [1] was over 100 µM and the GI50 [2] was under 10 nM. For the same compound, the TGI [2] was 338 nM, the GI50 [3] was under 0.01 µM and the TGI [3] was 117 nM. For the same compound, the GI50 [4] was under 0.0109 µM, the TGI [4] was 119 nM and the GI50 [5] was under 10 nM. For the same compound, the TGI [5] was 2530 nM, the GI50 [6] was 44.9 nM and the TGI [6] was 1920 nM. It also gave a GI50 [7] of 163 nM, a TGI [7] of 3.51 µM and a GI50 [8] of under 10 nM. For the same compound, the TGI [8] was 2140 nM, the GI50 [9] was 56.4 nM and the TGI [9] was 3.98 µM. For the same compound, the GI50 [10] was 51.2 nM, the GI50 [11] was 61.2 nM and the TGI [11] was 3.05 µM. It also gave a GI50 [12] of 247 nM, a TGI [12] of over 100000 nM and a GI50 [13] of under 10 nM. For the same compound, the TGI [13] was 1760 nM, the GI50 [14] was 176 nM and the TGI [14] was 4.56 µM. For the same compound, the GI50 [15] was under 10 nM, the TGI [15] was over 100 µM and the GI50 [16] was under 10 nM. It also gave a TGI [16] of 31.4 nM, a GI50 [17] of under 10 nM and a TGI [17] of 131 nM. For the same compound, the GI50 [18] was under 10 nM, the TGI [18] was 133 nM and the GI50 [19] was 1250 nM. The TGI [19] was over 100 µM, the GI50 [20] was 511 nM and the TGI [20] was over 100 µM. For the same compound, the GI50 [21] was under 10 nM, the TGI [21] was over 100 µM and the GI50 [22] was under 10 nM. For the same compound, the TGI [22] was 117 nM, the GI50 [23] was under 10 nM and the TGI [23] was over 100 µM. It also gave a GI50 [24] of 13.2 nM, a TGI [24] of over 100 µM and a GI50 [25] of under 0.0128 µM. The TGI [25] was 0.117 µM, the GI50 [26] was 50.3 nM and the TGI [26] was 7.51 µM. For the same compound, the GI50 [27] was under 10 nM, the GI50 [28] was under 10 nM and the TGI [28] was 73.1 nM. For the same compound, the GI50 [29] was under 12.5 nM, the TGI [29] was 355 nM and the GI50 [30] was 400 nM. For the same compound, the TGI [30] was 7.43 µM, the GI50 [31] was 115 nM and the GI50 [32] was 72.1 nM. For the same compound, the TGI [32] was 1.67 µM, the GI50 [33] was under 10 nM and the TGI [33] was 328 nM. The GI50 [34] was 19 nM, the TGI [34] was 0.485 µM and the GI50 [35] was under 0.0118 µM. For the same compound, the TGI [35] was 730 nM, the GI50 [36] was 47 nM and the TGI [36] was 1020 nM. The GI50 [37] was under 0.01 µM, the TGI [37] was 1.95 µM and the GI50 [38] was under 10 nM. It also gave a TGI [38] of over 44.2 µM, a GI50 [39] of 30.4 nM and a TGI [39] of 1080 nM. The GI50 [40] was under 10 nM, the TGI [40] was 781 nM and the GI50 [41] was 60.3 nM. For the same compound, the TGI [41] was 1650 nM, the GI50 [42] was under 10 nM and the TGI [42] was over 100 µM. For the same compound, the GI50 [43] was 127 nM, the TGI [43] was 4.16 µM and the GI50 [44] was under 10 nM. It also gave a TGI [44] of over 100 µM, a GI50 [45] of under 10 nM and a TGI [45] of 95.7 nM. For the same compound, the GI50 [46] was under 10 nM, the TGI [46] was 72.9 nM and the GI50 [47] was 311 nM. For the same compound, the TGI [47] was over 100 µM, the GI50 [48] was 17.3 nM and the TGI [48] was 4.96 µM. For the same compound, the GI50 [49] was 19.3 nM, the TGI [49] was over 100 µM and the GI50 [50] was 318 nM. It also gave a TGI [50] of 2630 nM, a GI50 [51] of under 10 nM and a GI50 [52] of under 10 nM. The TGI [52] was 1270 nM, the GI50 [53] was 206 nM and the TGI [53] was over 100 µM. It also gave a GI50 [54] of under 0.011 µM, a TGI [54] of 0.0516 µM and a GI50 [55] of under 10 nM. The TGI [55] was 40.4 nM, the GI50 [56] was under 10 nM and the TGI [56] was 439 nM. The GI50 [57] was 149 nM and the TGI [57] was over 100 µM.
Compound `CC(=O)N1N=C(c2ccc(C)cc2)CC1c1cn(-c2ccccc2)nc1-c1cccc(Nc2ccnc3cc(Cl)ccc23)c1` (configuration not stated) has a GI50 [1] of over 100000 nM, a TGI [1] of over 100 µM and a GI50 [3] of over 100 µM. It also gave a TGI [3] of over 100000 nM, a GI50 [4] of over 100 µM and a TGI [4] of over 100000 nM. For the same compound, the GI50 [6] was over 100000 nM, the TGI [6] was over 100000 nM and the GI50 [7] was over 100000 nM. It also gave a TGI [7] of over 100 µM, a GI50 [25] of over 100 µM and a TGI [25] of over 100 µM. The GI50 [30] was over 100000 nM, the TGI [30] was over 100 µM and the GI50 [34] was over 100000 nM. The TGI [34] was over 100 µM, the GI50 [35] was over 100 µM and the TGI [35] was over 100000 nM. For the same compound, the GI50 [36] was over 100000 nM, the TGI [36] was over 100000 nM and the GI50 [37] was over 100 µM. The TGI [37] was over 100 µM, the GI50 [43] was over 100000 nM and the TGI [43] was over 100 µM. The GI50 [48] was over 100000 nM, the TGI [48] was over 100 µM and the GI50 [54] was over 100 µM. It also gave a TGI [54] of over 100 µM, a GI50 [57] of over 100000 nM and a TGI [57] of over 100 µM.
With `COc1ccc2c(ccc3c(C(=O)NCCCN(C)CCCNC(=O)c4cn(C)c5c4ccc4cc(OC)ccc45)cn(C)c32)c1` the TGI [1] was 2.88 µM, the TGI [6] was 2860 nM and the TGI [7] was 2.97 µM. The TGI [12] was 2600 nM, the TGI [15] was 3.17 µM and the TGI [17] was 3020 nM. For the same compound, the TGI [19] was 4.78 µM, the TGI [22] was 3150 nM and the TGI [23] was over 100 µM. The TGI [32] was 5.89 µM, the TGI [34] was 3.01 µM and the TGI [36] was 2970 nM. It also gave a TGI [37] of 3.38 µM, a TGI [43] of 4.87 µM and a TGI [44] of over 100 µM. The TGI [45] was 2940 nM, the TGI [46] was 2970 nM and the TGI [47] was 2.92 µM. The TGI [49] was over 100 µM, the TGI [52] was 2790 nM and the TGI [53] was 3.27 µM. For the same compound, the TGI [54] was over 100 µM and the TGI [57] was 2.9 µM.
In the case of `O=C(Nc1cccc(-n2ccc3c(NC(=O)c4ccccc4)nccc32)c1)c1ccc(Cl)c(C(F)(F)F)c1`, the GI50 [1] was 143 nM and 950 nM, the GI50 [13] was 125 nM and 759 nM and the GI50 [16] was 163 nM and 612 nM. The GI50 [21] was 136 nM and 513 nM, the TGI [25] was 10.2 µM and > 100 µM and the TGI [42] was 6.71 µM and 15.7 µM. The TGI [47] was 17.1 µM and > 100 µM, the TGI [49] was 6.77 µM and 50.9 µM and the GI50 [52] was 116 nM and 481 nM.
`COCCCC(NC(=O)C(CC(C)C)NC(=O)OCc1ccc(OC)cc1)C(=O)OC` (configuration not stated) was tested, and the GI50 [2] was 83.3 µg/mL, the GI50 [7] was 32.5 µg/mL and the TGI [7] was 75.1 µg/mL. The GI50 [14] was 47.1 µg/mL, the TGI [14] was 76.6 µg/mL and the GI50 [15] was 77.6 µg/mL. It also gave a GI50 [16] of 96.4 µg/mL, a GI50 [22] of 71.3 µg/mL and a GI50 [23] of 42.1 µg/mL. For the same compound, the TGI [23] was 87.1 µg/mL, the GI50 [26] was 61.1 µg/mL and the GI50 [29] was 40.8 µg/mL. The TGI [29] was 65.4 µg/mL, the GI50 [32] was 27 µg/mL and the TGI [32] was 70 µg/mL. For the same compound, the GI50 [33] was 59.8 µg/mL, the GI50 [40] was 26.9 µg/mL and the TGI [40] was 57.5 µg/mL. The GI50 [42] was 18.8 µg/mL, the TGI [42] was 42.5 µg/mL and the GI50 [44] was 39.4 µg/mL. It also gave a TGI [44] of 60.1 µg/mL, a GI50 [45] of 50.5 µg/mL and a TGI [45] of 85.3 µg/mL. It also gave a GI50 [48] of 71.6 µg/mL, a GI50 [49] of 36 µg/mL and a TGI [49] of 81.5 µg/mL. The GI50 [52] was 23 µg/mL, the TGI [52] was 46.2 µg/mL and the GI50 [56] was 80.6 µg/mL.
